{"source": "patent US8211831B2", "about": "“Method to use a synergistic composition” (Riceco, LLC, priority 2005, dated 2012)", "assay_type_in_all_cases": "in vivo", "key": {"Barnyard grass": {"test_system": "Barnyard grass", "experiment": "commercial field application by air in Arkansas, half a weedy rice field (Example 8)", "conditions": "only propanil (Super Wham) at 4 pounds; 7 days after application"}, "[1]": {"test_system": "broadleaf weeds and sedges", "experiment": "small plot test in Arkansas, weedy rice plot (Example 7)", "conditions": "12 days after application", "text": "(§1) The chemical rates in pounds/acre were:\n(§2) The following observations were made 12 days after application."}, "Sprangletop": {"test_system": "Sprangletop", "experiment": "small plot test in Arkansas, weedy rice plot (Example 7)", "conditions": "propanil applied alone, all rates (5, 4, 3 pounds/acre); 12 days after application; 1 to 6 inch Sprangletop", "text": "as §1, §2"}, "[2]": {"test_system": "barnyard grass and Sprangletop (two grass species)", "experiment": "small plot test in Arkansas, weedy rice plot (Example 7)", "conditions": "cyhalofop alone, high labeled rate 0.279 pounds/acre; 12 days after application", "text": "as §1, §2"}, "[3]": {"test_system": "broadleaf weeds and sedges", "experiment": "small plot test in Arkansas, weedy rice plot (Example 1)", "conditions": "Clincher SF alone, 15 fluid ounces/acre (0.279 pounds ai/acre)", "text": "(§3) Note that the label recommended rate for Clincher® (cyhalofop) SF for controlling grasses in the 2-3 leaf stage is 13.5 fluid ounces/acre (0.251 pounds cyhalofop/acre)."}, "grasses": {"test_system": "grasses", "experiment": "small plot test in Arkansas, weedy rice plot (Example 1)", "conditions": "Clincher SF alone, 15 fluid ounces/acre (0.279 pounds ai/acre); 2-3 leaf barnyard grass", "text": "as §3"}}, "data": [{"compound": "CCC(=O)Nc1ccc(Cl)c(Cl)c1", "note": "[propanil]", "values": [{"measurement": "barnyard grass control", "setting": "Barnyard grass", "value": "poor barnyard grass control"}, {"measurement": "broadleaf and sedge control", "setting": "[1]; all rates of propanil applied (5, 4, 3 pounds/acre)", "value": "excellent broadleaf and sedge control"}, {"measurement": "Sprangletop control", "setting": "Sprangletop", "value": "lack of Sprangletop control"}]}, {"compound": "C[C@@H](Oc1ccc(Oc2ccc(C#N)cc2F)cc1)C(=O)O", "note": "[cyhalofop]", "values": [{"measurement": "controlling broadleaf weeds and sedges", "setting": "[1]; cyhalofop alone, high labeled rate 0.279 pounds/acre", "value": "weakness in controlling broadleaf weeds and sedges"}, {"measurement": "grass control", "setting": "[2]", "value": "excellent grass control"}, {"measurement": "control of the broadleaf weeds and sedges present at the time of application", "setting": "[3]", "value": 0, "unit": "%"}, {"measurement": "control of the grasses", "setting": "grasses", "value": "controlled the grasses"}]}]}
